Each compound was assayed against T1, Recombinant human liver GK1 (GST-GK) (Homo sapiens, UniProt P35557) (assay: In vitro glucokinase activity (G6PDH-coupled NADH assay)). Settings: 30° C., 5 mM D-glucose, 10% DMSO.
T1 construct: made in house; host or cells: E. coli
T1 sequence (P35557 1-466 isoform P35557-2): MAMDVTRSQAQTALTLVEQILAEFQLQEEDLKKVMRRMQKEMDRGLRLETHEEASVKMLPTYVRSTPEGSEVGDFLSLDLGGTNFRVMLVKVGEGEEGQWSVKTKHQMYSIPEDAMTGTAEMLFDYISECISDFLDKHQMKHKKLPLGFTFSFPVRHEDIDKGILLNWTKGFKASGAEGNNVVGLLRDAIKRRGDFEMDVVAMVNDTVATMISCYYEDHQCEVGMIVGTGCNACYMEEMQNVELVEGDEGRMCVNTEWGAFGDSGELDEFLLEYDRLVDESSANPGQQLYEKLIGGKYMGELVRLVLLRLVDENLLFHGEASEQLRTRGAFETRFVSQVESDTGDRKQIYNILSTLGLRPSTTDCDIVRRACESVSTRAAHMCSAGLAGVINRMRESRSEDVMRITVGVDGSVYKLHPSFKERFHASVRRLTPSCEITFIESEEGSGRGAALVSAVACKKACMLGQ
Format: biochemical
Method: Glucokinase In Vitro Assay Protocol: Glucokinase (GK) was assayed by coupling the production of glucose-6-phosphate to the generation of NADH with glucose-6-phosphate dehydrogenase (G6PDH, 0.75-1 kunits/mg; Boehringer Mannheim, Indianapolis, Ind.) from Leuconostoc mesenteroides as the coupling enzyme (Scheme 2).
Recombinant human liver GK1 was expressed in E. coli as a glutathione S-transferase fusion protein (GST-GK) [Liang et al, 1995] and was purified by chromatography over a glutathione-Sepharose 4B affinity column using the procedure provided by the manufacturer (Amersham Pharmacia Biotech, Piscataway, N.J.).
The assay was conducted at 30° C. in a flat bottom 96-well tissue culture plate from Costar (Cambridge, Mass.) with a final incubation volume of 120 μL. The incubation reaction contained the following: 25 mM Hepes buffer (pH 7.1), 25 mM KCl, 5 mM D-glucose, 1 mM ATP, 1.8 mM NAD, 2 mM MgCl2, 1 μM sorbitol-6-phosphate, 1 mM dithiothreitol, test drug or 10% dimethylsulfoxide, ˜7 units/ml G6PDH, and GK (see below). All organic reagents were >98% pure and were from Boehringer Mannheim with the exceptions of D-glucose and Hepes which were from Sigma Chemical Co, St Louis, Mo. Test compounds were dissolved in dimethylsulfoxide and were added to the incubation reaction minus GST-GK in a volume of 12 μL to yield a final dimethylsulfoxide concentration of 10%. This mix was pre-incubated in the temperature controlled chamber of a SPECTRAmax 250 microplate spectrophotometer (Molecular Devices Corporation, Sunnyvale, Calif.) for 10 min to allow temperature equilibrium and then the reaction was started by the addition of 20 μL GST-GK.
After addition of enzyme, the increase in optical density (OD) at 340 nm was monitored spectrophotometrically to determine the rate of change (OD340 per min). The GK activity (OD340/min) in control wells (10% DMSO minus GK activators) was compared with the activity in wells containing test GK activators, and the concentration of activator that produced a 50% increase in the activity of GK, i.e., the SC1.5, was calculated. The table below provides the in vitro glucokinase activity for the compounds in the Examples: […]

SC1.5 (concentration of activator that produced a 50% increase in the activity of GK) [µM] | SMILES
> 30 | CC(C)(O)Cn1ccc(NC(=O)C(Cc2c(Cl)cccc2Cl)N2CC(Oc3c(F)cccc3F)=CC2=O)n1 (stereo not shown) [Example 225, 3-(2,6-Dichloro-phenyl)-2-[4-(2,6-difluoro-phenoxy)-2-oxo-2,5-dihydro-pyrrol-1-yl]-N-[1-(2-hydroxy-2-methyl-propyl)-1H-pyrazol-3-yl]-propionamide]
1.125 | CC(C)C[C@@H](C(=O)Nc1ccn(C[C@@H](O)CO)n1)N1CC(Oc2cccc(CC(C)(C)O)c2)=CC1=O [Example 238, (S)-2-{4-[3-(2-Hydroxy-2-methyl-propyl)-phenoxy]-2-oxo-2,5-dihydro-pyrrol-1-yl}-4-methyl-pentanoic acid [1-((R)-2,3-dihydroxy-propyl)-1H-pyrazol-3-yl]-amide]
1.365 | COC1=CC(=O)N([C@@H](CC2CCCC2)C(=O)Nc2ncc(F)s2)C1 [Example 8, (S)-3-Cyclopentyl-N-(5-fluoro-thiazol-2-yl)-2-(4-methoxy-2-oxo-2,5-dihydro-pyrrol-1-yl)-propionamide]
0.007 | COc1cccc(OC2=CC(=O)N([C@@H](CC3CCCC3)C(=O)Nc3ccn(C[C@@H](O)CO)n3)C2)c1Cl [Example 55, (S)-2-[4-(2-Chloro-3-methoxy-phenoxy)-2-oxo-2,5-dihydro-pyrrol-1-yl]-3-cyclopentyl-N-[1-((R)-2,3-dihydroxy-propyl)-1H-pyrazol-3-yl]-propionamide]
0.037 | Cl.Cn1ccc(NC(=O)[C@H](CC2CCCCC2)N2CC(Oc3c(F)ccc(Cl)c3F)=CC2=O)n1 [Example 75, (S)-2-[4-(3-Chloro-2,6-difluoro-phenoxy)-2-oxo-2,5-dihydro-pyrrol-1-yl]-3-cyclohexyl-N-(1-methyl-1H-pyrazol-3-yl)-propionamide Hydrochloride]
0.033 | COc1cccc(OC2=CC(=O)N(C(CC3CCOCC3)C(=O)Nc3ccn(CC(C)(C)O)n3)C2)c1Cl (stereo not shown) [Example 50, 2-[4-(2-Chloro-3-methoxy-phenoxy)-2-oxo-2,5-dihydro-pyrrol-1-yl]-N-[1-(2-hydroxy-2-methyl-propyl)-1H-pyrazol-3-yl]-3-(tetrahydro-pyran-4-yl)-propionamide]
0.198 | CC(C)C[C@@H](C(=O)Nc1ccn(CC(C)(C)O)n1)N1CC(Oc2c(F)cccc2F)=CC1=O [Example 45, (S)-2-[4-(2,6-difluoro-phenoxy)-2-oxo-2,5-dihydro-pyrrol-1-yl]-4-methyl-pentanoic acid [1-(2-hydroxy-2-methyl-propyl)-1H-pyrazol-3-yl]-amide]
0.243 | COc1cccc(OC2=CC(=O)N([C@@H](CC(C)C)C(=O)Nc3ccn(CC(C)(C)O)n3)C2)c1 [Example 165, (S)-2-[4-(3-Methoxy-phenoxy)-2-oxo-2,5-dihydro-pyrrol-1-yl]-4-methyl-pentanoic acid [1-(2-hydroxy-2-methyl-propyl)-1H-pyrazol-3-yl]-amide]
3.591 | COC1=CC(=O)N([C@@H](CC2CCCC2)C(=O)Nc2ccn(Cc3cccc(C#N)c3)n2)C1 [Example 12, (S)-N-[1-(3-Cyano-benzyl)-1H-pyrazol-3-yl]-3-cyclopentyl-2-(4-methoxy-2-oxo-2,5-dihydro-pyrrol-1-yl)-propionamide]
0.071 | COC(=O)c1ccc(NC(=O)[C@H](CC2CCOCC2)N2CC(Oc3c(F)cccc3F)=CC2=O)nc1 [Example 41, (S)-6-[2-[4-(2,6-difluoro-phenoxy)-2-oxo-2,5-dihydro-pyrrol-1-yl]-3-(tetrahydro-pyran-4-yl)-propionylamino]-nicotinic acid methyl ester]
0.048 | O=C(O)c1ccc(NC(=O)[C@H](CC2CCCCC2)N2CC(Oc3c(F)cccc3Cl)=CC2=O)nc1 [Example 70, 6-{(S)-2-[4-(2-Chloro-6-fluoro-phenoxy)-2-oxo-2,5-dihydro-pyrrol-1-yl]-3-cyclohexyl-propionylamino}-nicotinic acid]
0.772 | CCO[C@H](C)C[C@@H](C(=O)Nc1ccn(CC(C)(C)O)n1)N1CC(Oc2cccc(Cl)c2Cl)=CC1=O [Example 94, (2S,4R)-2-[4-(2,3-Dichloro-phenoxy)-2-oxo-2,5-dihydro-pyrrol-1-yl]-4-ethoxy-pentanoic acid [1-(2-hydroxy-2-methyl-propyl)-1H-pyrazol-3-yl]-amide]
> 30 | Cc1nsc(NC(=O)[C@H](CC(C)C)N2CC(Oc3ccccc3Cl)=CC2=O)n1 [Example 107, (S)-2-[4-(2-Chloro-phenoxy)-2-oxo-2,5-dihydro-pyrrol-1-yl]-4-methyl-pentanoic acid (3-methyl-[1,2,4]thiadiazol-5-yl)-amide]
0.694 | C=CCOC(=O)Cc1nsc(NC(=O)[C@H](CC(C)C)N2CC(Oc3ccccc3Cl)=CC2=O)n1 [Example 111, (5-{(S)-2-[4-(2-Chloro-phenoxy)-2-oxo-2,5-dihydro-pyrrol-1-yl]-4-methyl-pentanoylamino}-[1,2,4]thiadiazol-3-yl)-acetic acid allyl ester]
0.09 | O=C(Nc1ccn(C[C@@H](O)CO)n1)C(CC1C[C@@H](F)[C@@H](F)C1)N1CC(Oc2ccccc2Cl)=CC1=O (stereo partly drawn) [Example 263, 2-[4-(2-Chloro-phenoxy)-2-oxo-2,5-dihydro-pyrrol-1-yl]-3-((1R,3S,4R)-3,4-difluoro-cyclopentyl)-N-[1-((R)-2,3-dihydroxy-propyl)-1H-pyrazol-3-yl]-propionamide]
0.05 | O=C(Nc1ccn(CCO)n1)[C@H](CC1CCCC1)N1CC(Oc2c(F)cccc2F)=CC1=O [Example 89, (S)-3-Cyclopentyl-2-[4-(2,6-difluoro-phenoxy)-2-oxo-2,5-dihydro-pyrrol-1-yl]-N-[1-(2-hydroxy-ethyl)-1H-pyrazol-3-yl]-propionamide]
0.249 | Cc1cccc(OC2=CC(=O)N([C@@H](CC(C)C)C(=O)Nc3ccn(CCO)n3)C2)c1F [Example 133, (S)-2-[4-(2-Fluoro-3-methyl-phenoxy)-2-oxo-2,5-dihydro-pyrrol-1-yl]-4-methyl-pentanoic acid [1-(2-hydroxy-ethyl)-1H-pyrazol-3-yl]-amide]
0.97 | CC(C)C[C@@H](C(=O)Nc1ccn(C[C@@H](O)CO)n1)N1CC(Oc2cccc(C(F)(F)F)c2)=CC1=O [Example 96, (S)-4-Methyl-2-[2-oxo-4-(3-trifluoromethyl-phenoxy)-2,5-dihydro-pyrrol-1-yl]-pentanoic acid [1-((R)-2,3-dihydroxy-propyl)-1H-pyrazol-3-yl]-amide]
0.414 | CC(C)C[C@@H](C(=O)Nc1ccn(C)n1)N1CC(Oc2cccc(O)c2F)=CC1=O [Example 127, (S)-2-[4-(2-Fluoro-3-hydroxy-phenoxy)-2-oxo-2,5-dihydro-pyrrol-1-yl]-4-methyl-pentanoic acid (1-methyl-1H-pyrazol-3-yl)-amide]
0.306 | COc1cccc(OC2=CC(=O)N([C@@H](CC(C)C)C(=O)Nc3ccn(C[C@@H](O)CO)n3)C2)c1 [Example 160, (S)-2-[4-(3-Methoxy-phenoxy)-2-oxo-2,5-dihydro-pyrrol-1-yl]-4-methyl-pentanoic acid [1-((R)-2,3-dihydroxy-propyl)-1H-pyrazol-3-yl]-amide]

Same assay, conditions: at 30 μM test compound

fold act. @ 30 μM [fold] | SMILES
1.4 | CC(C)(O)Cn1ccc(NC(=O)C(Cc2c(Cl)cccc2Cl)N2CC(Oc3c(F)cccc3F)=CC2=O)n1 (stereo not shown) [Example 225, 3-(2,6-Dichloro-phenyl)-2-[4-(2,6-difluoro-phenoxy)-2-oxo-2,5-dihydro-pyrrol-1-yl]-N-[1-(2-hydroxy-2-methyl-propyl)-1H-pyrazol-3-yl]-propionamide]
1.4 | Cc1nsc(NC(=O)[C@H](CC(C)C)N2CC(Oc3ccccc3Cl)=CC2=O)n1 [Example 107, (S)-2-[4-(2-Chloro-phenoxy)-2-oxo-2,5-dihydro-pyrrol-1-yl]-4-methyl-pentanoic acid (3-methyl-[1,2,4]thiadiazol-5-yl)-amide]
